What was measured:
rat ATB^0,+ [1] = molecular target: T1, rat ATB^0,+ (Rattus norvegicus, UniProt Q334I2); assay: Inhibition of ATB0,+-mediated 3H-glycine uptake in HRPE cells expressing cloned rat ATB0,+; format: cell-based; conditions: 5 mM; HRPE cells
T1 sequence (Q334I2 1-640): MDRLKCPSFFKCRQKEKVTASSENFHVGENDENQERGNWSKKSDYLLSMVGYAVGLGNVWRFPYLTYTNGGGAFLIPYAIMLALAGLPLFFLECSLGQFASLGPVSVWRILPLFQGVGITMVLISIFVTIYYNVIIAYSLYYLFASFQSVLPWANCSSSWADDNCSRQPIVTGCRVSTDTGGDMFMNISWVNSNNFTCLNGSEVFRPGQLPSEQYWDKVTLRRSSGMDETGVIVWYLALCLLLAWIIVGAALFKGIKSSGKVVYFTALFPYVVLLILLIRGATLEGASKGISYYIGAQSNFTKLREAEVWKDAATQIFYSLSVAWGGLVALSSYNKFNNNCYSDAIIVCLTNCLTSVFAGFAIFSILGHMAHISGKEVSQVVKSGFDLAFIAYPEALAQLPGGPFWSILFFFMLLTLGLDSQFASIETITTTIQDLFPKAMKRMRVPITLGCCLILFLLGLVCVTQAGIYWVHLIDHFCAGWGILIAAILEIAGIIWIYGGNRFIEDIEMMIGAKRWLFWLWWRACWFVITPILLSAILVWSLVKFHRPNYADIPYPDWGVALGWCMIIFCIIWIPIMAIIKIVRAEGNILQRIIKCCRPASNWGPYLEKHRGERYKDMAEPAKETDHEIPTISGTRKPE

rat ATB^0,+ [2] = molecular target: T1, rat ATB^0,+; assay: Substrate-induced inward currents in Xenopus oocytes expressing rat ATB0,+ (voltage clamp); format: cell-based; conditions: 5 mM; voltage clamp
Description: Experiments with HRPE cells were repeated at least three times with three independent transfections and transport measurements made in duplicate in each experiment. Electrophysiological measurements of substrate-induced currents were repeated at least three times with separate oocytes. The data are presented as means±S.E.M. of these replicates. The kinetic parameters, Michaelis constant (Kt) and maximal velocity (Vmax) were calculated by fitting the ATB^0,+-specific transport data to the Michaelis-Menten equation describing a single saturable transport system. Na^+ and Cl^−-activation kinetics were analyzed by fitting the ATB^0,+-specific transport data to the Hill equation for the determination of K0.5 values for Na^+ and Cl^− (concentration of Na^+ and Cl^− necessary for half-maximal activation) and the Hill coefficient (nH; the number of Na^+ or Cl^− ions involved in the activation process). The kinetics parameters were first determined by non-linear regression methods and subsequently confirmed by linear regression methods using the commercially-available computer program SigmaPlot, version 6.0 (SPSS Inc., Chicago, Ill., US).
Therefore, it was necessary to determine whether or not the α-carboxyl esters of neutral amino acids are transportable substrates for ATB^0,+. For this purpose, we used the X. laevis oocyte expression system. Cloned rat ATB^0,+ was functionally expressed in oocytes by injection of corresponding cRNA, and the transport of substrates via the transporter was monitored by inward currents when the oocytes were exposed to putative substrates under voltage-clamp conditions.

CC(=O)O [acetate]
Inhibition of ATB0,+-mediated glycine transport (in words) (rat ATB^0,+ [1]): did not inhibit glycine transport
Inward currents induced in ATB0,+-expressing oocytes (in words) (rat ATB^0,+ [2]): did not induce detectable current
